Source: US20080249178A1, “MAGNESIUM COMPOSITIONS AND USES THEREOF FOR INCREASING LIFESPAN” (priority 2007, published 2008)

Assays:
[1] = Magnesium absorption rate in rats (metabolic cages, urine and feces magnesium by ICP-AES); conditions: higher dosage compositions; magnesium chloride in water, magnesium gluconate in skim milk or water comprising 5 weight percent lactose
Method: Fifty 3-month old, male Sprague Dawley (SD) rats were divided into five groups of ten rats. Rats of this age and older are considered adult. Each of the rats was placed in a separate metabolic cage equipped with urine- and feces-collecting wells. All of the rats were maintained in a temperature-controlled room (22° C. to 25° C.) with a dark period from 08:00 pm to 08:00 am daily. From day 1 through day 3, each rat was fed daily 15 g of magnesium-free food and de-ionized water. […] The medium was skim milk for Composition 1 and Group 1, milk prepared from powdered milk, by diluting the powdered milk with water to obtain a composition like that of skim milk, for Composition 2 and Group 2, 1% milk cream in water for Composition 3 and Group 3, water comprising 5 weight percent lactose for Composition 4 and Group 4, and water for the Control Composition and Control Group. […]
From day 4 through day 10, urine from each rat was collected daily. The collected urine from each rat was then pooled together and the total volume of the pooled urine from each rat was recorded. The pooled urine from each rat, in an amount of […], was analyzed for magnesium content using an inductively coupled plasma-atomic emission spectrometer (ICP-AES). […] The pooled feces from each rat, in an amount of 0.5 g, were analyzed for magnesium content using an ICP-AES. […]

[2] = test system: Sprague Dawley (SD) rats; conditions: aging rats, 6 mg/kg MgCl2
Method: Twenty 2-month old, male Sprague Dawley (SD) rats were housed in a temperature-controlled room (22° C. to 25° C.) with a dark period from 08:00 pm to 08:00 am daily. […] Over 7 days before the training and trial period began, each rat was handled and habituated to the maze and to Kellogg's Froot Loop cereal.
Each rat underwent a test of one trial, followed by an interval of 10-minutes, followed by another trial, and so on, for a total of 6 trials in one day. In each trial, each rat went through a sample run in the maze, followed by an interval of 15 seconds, followed by a choice run in the maze. In the sample run, the subject rat was forced to go to the left or to the right by the presence of a block, according to a pseudorandom sequence (with an equal number of left turns and right turns, and no more than two consecutive turns in the same direction). As a reward, Froot Loop cereal was available in the food well at the end of the run, regardless of the direction that was taken by virtue of the block. In the choice run, the block that had been present in the preceding sample run was removed, and the rat was allowed to choose to go to the left or to the right. As a reward, Froot Loop cereal was available in the food well at the end of the run, only when the rat had made a “correct choice” by choosing the direction opposite that taken in the preceding sample run. […]
On the first day (designated day 0) of the feeding of the two groups, as just described, each rat underwent a preliminary test of one trial, followed by an interval of 10 minutes, followed by another trial, and so on, for a total of 4 trials in one day. […] In this preliminary test, the choice accuracy level, or ratio of correct choices made, co, to the number of number of trials in the test, no, was determined for each rat. […]
Three groups of animals (young, aging, and magnesium-treated aging rats) were used. […] Spatial working memory was assessed using a T-maze non-matching-to-place task. […] Spatial working memory was first assessed on an elevated T-maze. […]

[3] = test system: Sprague-Dawley rats; assay: Novel object recognition test in rats; type: in vivo
Method: In this example, the effect of magnesium supplementation on recognition memory was tested. Three groups of rats were used in these experiments: 1) young rats (three months old); aging rats (12-14 months old), and; 3) magnesium-treated aging rats (12-14 months old, diet supplemented with 6 mg/kg MgCl2 from 8 months of age). We used experimentally naive, female, Sprague-Dawley young […], aging (12-14 month old) and […] rats (Charles River) at the beginning of the behavior experiments. They were housed two per cage with continuous access to food and water under a 12:12 light-dark cycle, with light onset at 8:00 a.m. […] All experiments involving animals were approved by the Massachusetts Institute of Technology's and Tsinghua University Committees on Animal Care.
The three groups of rats were tested for recognition memory using an object recognition test with a single exposure to the object during training. The task is based on the natural tendency of rodents to explore new objects and tests the animals' memory capacity for distinguishing novel versus familiar objects.
Briefly, the rats were first individually habituated to the personnel and then to open-field arena during 2 weeks. […] The retention intervals were 10 min and 24 hours. Objects were cleaned thoroughly between trials with 20% ethanol solution to ensure the absence of olfactory cues. The particular objects for a given trial were randomly determined, but each object was used for only one trial per rat. Memory of the familiar object is associated with increased exploration of the new object and an exploration index (% correct) is calculated as new object inspection time/30.
In this example, the effect of magnesium supplementation on memory consolidation was studied. […]
Briefly, the rats were first individually habituated to the personnel and then to open-field arena during 2 weeks. […] The particular objects for a given trial were randomly determined, but each object was used for only one trial per rat. […]

[4] = diabetic patients, nearly 1 g of magnesium daily for 1 month; cited from earlier work
[5] = test system: young (9-month old) and aged (25-month old) rats; conditions: food containing 2% magnesium oxide for 8 days, cited from earlier work
[6] = test system: mice that were genetically altered to present symptoms of Alzheimer's disease (AD); assay: Modified Morris water maze in AD mice; type: in vivo; conditions: AD mice aged 13 months
Method: Another group, the control group, of 10 mice that were genetically altered to present symptoms of AD were fed a Control Diet, a diet of normal solid food and water, for 30 days.
The pool used was a pool of water in a circular metal tank (150 cm in diameter and 50 cm in depth) having a water height of 30 cm and a water temperature that was maintained at ˜22° C. The pool was placed in a moderately lit area and surrounded by a black curtain. An acrylic platform (15 cm in diameter) was placed 2 cm below the surface of the water in the middle of one quadrant of the pool, equidistant from the center and the edge of the pool. Outside the pool, a cue was placed so as to be visible to a mouse in the maze, allowing a mouse to use it as a landmark for spatial orientation. The cue remained unchanged throughout the test period.
On the first day of the training and testing period, the water in the pool was transparent, such that the platform was visible. Each mouse was trained to swim towards the platform and to stand on the platform so as not to be submerged in the pool. […] The amount of time the mouse took to find the platform, referred to as “escape latency,” was recorded for each trial.
On the second day of the training and testing period, a small quantity of milk was added to the water in the pool, such that the pool was opaque and the platform was no longer visible. […]

[Cl-].[Cl-].[Mg+2] [MgCl2, magnesium chloride]
magnesium absorption rate at relatively high magnesium dosage [1]: less desirable
spatial working memory performance with increased delay ([2]; 2 and 5 min delays (p<0.05)): significantly enhanced the performance of the aging rats
percentage of correct choices during training ([2]; 15 sec delay (p<0.05)): performed significantly better from their first trials
asymptotic choice accuracy level ([2]; after 8 days of training): 94%
novel object exploration preference ([3]; aging rats (12-14 months old), 6 mg/kg MgCl2 from 8 months of age, single exposure, 10 minute retention interval (P<0.0001)): preferentially explored the novel object to the same extent as young rats
ability to distinguish novel versus familiar objects ([3]; aging rats, 6 mg/kg MgCl2, single exposure, after 24 hours): lose there ability to distinguish novel versus familiar objects
preference for the novel object ([3]; aging rats, 6 mg/kg MgCl2, two training sessions, 24-hour retention interval): retained a high level of preference

[O]=[Mg] [magnesium oxide]
increase of serum magnesium level [4]: about 10%
metabolic control [4]: only minor improvement in metabolic control
side-effect [5]: diarrhea and weight loss
cognitive function ([5]; gain transient): some sign of improvement of cognitive function

CC12CC3CC(C)(C1)CC(N)(C3)C2 [memantine]
reduction of the effects of AD on learning capacity, compared with aricept [6]: better at reducing the effects of AD on learning capacity than aricept
